US20260055118A1, “VISIBLE LIGHT SENSITIVE PHOTOREMOVABLE PROTECTING GROUPS, PREPARATION PROCESS THEREOF, PHOTOACTIVATABLE CONJUGATES COMPRISING THEM AND USES THEREOF” (HUN-REN TERMÉSZETTUDOMÁNYI KUTATÓKÖZPONT, priority 2022, published 2026)

Key:
[1] = Spectroscopic properties of the target conjugates in PBS; format: physicochemical; details: for ε (molar absorption coefficient): at the absorption maximum
Protocol: All starting materials were obtained from commercial suppliers and used without further purification. Analytical thin-layer chromatography (TLC) was performed on silica gel 60 F254 precoated aluminum TLC plates from Merck. Flash column chromatography was performed on Teledyne Isco CombiFlash® Rf+ automated flash chromatographer with silica gel (25-40 μm) from Zeochem. NMR spectra were recorded on a Varian Inova 500 MHz spectrometer. Chemical shifts (δ) are given in parts per million (ppm) using solvent signals or TMS as the reference. Coupling constants (J) are reported in Hertz (Hz). Analytical RP-HPLC-UV/Vis-MS measurements were employed using a Shimadzu LCMS-2020 instrument applying a Gemini C18 column (100×2.00 mm I.D.) in which the stationary phase is […] with a pore size of 110 Å. The chromatograms were detected by a UV-Vis diode array (190-800 nm) and an ESI-MS detector. The following linear gradient elution profile was applied, 0 min 0% B; 6.5 min 100% B; 7 min 0% B; 8 min. 0% B) with eluent A (2% HCOOH, 5% MeCN and 93% water) and B (2% HCOOH, 80% MeCN and 18% water) at a flow rate of 1.0 mL min-1 at 30° C. The samples were dissolved in MeCN—water mixtures. Spectroscopic measurements were performed on a Jasco FP 8300 spectrofluorometer. Quartz cuvettes with path length of 1 cm were used.
The spectroscopic properties of the target conjugates were determined in PBS. […] Compounds with Q=O have absorption bands in the green-yellow region while Q=CMe2 derivatives absorb in the red (up to 700 nm). All of the compounds have moderate to high absorption coefficients and significant fluorescence. The spectroscopic details can be found in Table 1. In the table, λmax means absorption maximum; λem means fluorescence emission maximum; s means molar absorption coefficient (at the absorption maximum).

[2] = Uncaging experiments, LED irradiation followed by HPLC-UV-MS; format: physicochemical; details: green light, 60 s
Protocol: The uncaging experiments were performed using green (4 W input power, λmax=549 nm half-width: 16 nm, output power: 72 mW), orange (4 W input power, λmax=605 nm half-width: 10 nm, output power: 140 mW) and red (4 W input power, λmax=658 nm half-width: 10 nm, output power: 210 mW) LEDs as light source. Sample solutions were prepared, each containing 1 ml of solvent (90% v/v water-MeCN or 90% PBS-MeCN or 100% methanol for the photochemical quantum yield determination) and 0.1 mM or 0.05 mM concentration of the photoactivatable conjugates. The samples were irradiated for a given time using continuous water cooling for the light source. Then, the samples were transferred to the HPLC-UV-MS system and the chromatograms were recorded. The traces at 195 nm, 254 nm or 369 nm (dependent on the cargo moieties) and at the absorption maxima of the photoremovable protecting groups (530 nm, 570 nm or 640 nm) were compared and the corresponding peaks were integrated and compared to reference calibration sets. The possible photoproducts were identified by their corresponding m/z value and also from the UV/VIS spectra from the DAD-equipped instrument. For the dark stability experiments, the HPLC sample solutions were kept in the dark and chromatograms were recorded multiple times.
The photouncaging was evaluated by HPLC-MS using green (4 W input power, λmax=549 nm half-width: 16 nm, output power: 72 mW), orange (4 W input power, λmax=605 nm half-width: 10 nm, output power: 140 mW) and red (4 W input power, λmax=658 nm half-width: 10 nm, for Q=CMe2 output power: 210 mW) LED irradiation. For all compounds the experiments were performed in 90% water/MeCN mixtures as well as in 90% PBS/MeCN (0.1 mM concentration). In all cases, the irradiation led to the release of the model active agents with significant differences based on the photoremovable protecting group, cargo unit and the connecting chemical moiety as well as on the water content of the uncaging medium. Comparing the green light absorbing target conjugates, irradiation of 39 led to the release of 54% phenylacetic acid in 60 s (FIG. 6b), while 180 s (for 50%) was required for the same result in case of 41. Approximately 65% of phenylacetic acid was released after 180 s of irradiation with orange light from model target conjugate 41 (FIG. 6a). The current state of the art BODIPY derivative (for the structure, see the next section),^20,21 released only 12% phenylacetic acid after irradiation for 1800 s. Contrary to the general expectations that increasing the wavelength diminishes photolysis rates, the uncaging of the redshifted Q=CMe2 derivative 43 was also very effective, reaching >70% release of phenylacetic acid in 120 s after red light irradiation (FIG. 6c). The high efficiency of 43 as a red light-activatable photoremovable protecting group was also compared to a π-extended BODIPY derivative (substrate 7 in REF^21, using methanol as the solvent in a concentration of 0.1 mM), the current state of the art in this region of visible light.
Importantly, except in the case of compounds wherein the connecting chemical moiety was a carbonate moiety (i.e., compound 51, FIG. 6f), the target conjugates were stable in water as well as in PBS for 24 hours in the dark. The stability and uncaging rates of several leaving groups was also assessed. Comparing the most important functional groups (carboxylic acid, amine, phenol, alcohol) in potential active agents connected via the typical linkages in the target conjugates, the carbonate bond was the most labile (compound 51, >70% decomposition in 30 s with red light at 50% power) although the long-term dark stability was poor. None of the other model active agents were released in significant quantities, however, after 24-28 hours in the dark (for dark stability data see FIGS. 6a-6h, right side).
Using HPLC-MS, not only the appearance of the released model active agents could be monitored but also the products of photolysis were detectable. […]

[3] = Uncaging quantum yield determination relative to BODIPY reference; format: physicochemical; details: for ε × Φu, uncaging cross-section / quantum efficiency: at the wavelength in parentheses beside each value (538-660 nm); for Φu, uncaging quantum yield: calculated from active agent release; for Φu, uncaging quantum yield / Φdeg, degradation quantum yield: green light irradiation; for Φdeg, degradation quantum yield: calculated from the disappearance of the target conjugate
Protocol: The relative photochemical quantum yields of the uncaging reactions together with the degradation quantum yields were determined from the results of the quantitative HPLC-UV experiments. In all cases, green light irradiation was used since all target conjugates absorbed in this range as well as the reference BODIPY. The photochemical quantum yields were determined using the following equation:
[formula] • where • Φu is the photochemical quantum yield of the sample • Φu,ref is the photochemical quantum yield of the reference • k is the obtained reaction rate constant of the photoreaction of the sample • kref is the obtained reaction rate constant of the photoreaction of the reference • c is the concentration of the sample • cref is the concentration of the reference • V is the volume of the sample • Vref is the volume of the reference • a is the absorption correction factor of the sample • aref is the absorption correction factor of the reference
The absorption correction factors (a) were determined from the molar absorption coefficients and the green LED emission data obtained by the fluorimeter. […] In other words, the transmittance at each wavelength together with the emission data of the light source can be used to calculate the percentage of absorbed photons according to the following equation:
[formula] • where • T(λ) is the transmittance at each wavelength (determined from the molar absorption coefficients) • F(λ) is the LED emission at each wavelength • λmin, λmax is the LED emission range.
The rate constants of the photoreactions were determined by considering the reactions monoexponential with an initial linear phase (up to 10-20% degradation). First, the concentration vs. HPLC-UV peak were determined for each cargo moieties. […] The rate constants were determined for both the reference (with known Φu) and the sample. For reference, a commonly known BODIPY derivative was used with a similar phenylacetic acid-derived cargo unit (substrate 7 from REF^40), Φu=0.15%:
The calculated photochemical quantum yields together with uncaging cross-sections or quantum efficiencies (product of the molar absorption coefficient at a given wavelength, shown in parentheses and the photochemical quantum yield) are shown in Table 2. In the table, Φu is the photochemical quantum yield of the release; Φdeg is the photochemical quantum yield of degradation; ε×Φu is the uncaging cross-section or quantum efficiency of the release at a given wavelength in parentheses.

SK-OV-3 cells = assay: Cytotoxicity determination, MTT assay, with light irradiation and in the dark; format: cell-based, human; details: for cell viability: DARK
Protocol: A viability test was carried out to assess the toxicity of SN38 as well as the photoremovable protecting group-SN38 conjugates X1′-SN38 and X2′-SN38 after light irradiation and in the dark on SKOV3 cells. Cells were transferred into a 48-well plate (Thermo Fisher Scientific, 130187) (4,500 cells/well) and incubated for 20-24 h at 37° C. in a 5% CO2 atmosphere in McCoy's 5A (Modified) Medium, HEPES (Gibco 22330021) supplemented with 10% FBS (Gibco 10500-064), 1% penicillin-streptomycin (Gibco 15140-122). Cells were treated with compounds in the concentration range of 10^−11-10^−4 M for 90 min followed by light irradiation or kept in the dark at 37° C. in 5% CO2 atmosphere. After treatment and irradiation, cells were kept at 37° C. in 5% CO2 atmosphere for 72 hours. After the incubation period, supernatants were replaced with 0.5 mg/ml MTT (3-(4,5-dimethylthiazol-2-yl)-2,5-diphenyltetrazolium bromide; Sigma M5655-1G) solution (in complete DMEM: Dulbecco's modified Eagle's medium (DMEM, Gibco 41965-039), supplemented with 10% FBS (Gibco 10500-064), 1% penicillin-streptomycin (Gibco 15140-122), 1% Glutamax (Gibco 35050-061) and 1% sodium pyruvate (Life Technologies, Gibco 11360-070)) and incubated for 120 min at 37° C. in the dark. The insoluble formazan crystals were dissolved in 250 μl DMSO. Absorbance was detected at 540 nm using a Biotek Synergy 2 Cytation 3 imaging plate reader with Gen5 software version 3.08 (Biotek Winooski, VT, USA). Viability was expressed as percentage (n=3) of the readings of untreated control cells.
To determine phototoxic properties of compounds X1′-SN38 and X2′-SN38, standard MTT assays were performed on SK—OV-3 cells. To irradiate multiple specimens, an LED panel was custom-made for a 48-well plate consisting of 24 LEDs using green (4 W input power, λmax=549 nm half-width: 16 nm, output power: 72 mW), orange (4 W input power, λmax=605 nm half-width: 10 nm, output power: 140 mW) and red (4 W input power, λmax=658 nm half-width: 10 nm, for Q=CMe2 output power: 210 mW) LED irradiation. The board was specifically designed for the plates and offer water cooling to minimize heat shock to cells. Every second well can be irradiated with an individual LED. First, the cytotoxicity of the free active agent, SN38 was determined to be EC50 ^˜6 nM. Treatment of cells with the photoactivatable SN38 derivatives for 72 hours in the absence of light (without washing) produced moderate cytotoxic effects, sigificantly lowering the effectiveness of the active agent. This confirms that SN38 is a suitable candidate for light-activated prodrug applications. […] Reducing the irradiation time down to 10 s still produced significant phototoxicity in higher concentrations (see FIG. 8a for compound X2′-SN38) even assuming incomplete uncaging as a result of the substantial dark stability of compound X2′-SN38.

| Structure (SMILES) | λem (fluorescence emission maximum) [1] [nm] | λmax (absorption maximum) [1] [nm] | ε (molar absorption coefficient) [1] | release of phenylacetic acid [2] [%] | ε × Φu, uncaging cross-section / quantum efficiency [3] [M⁻¹ cm⁻¹] | Φu, uncaging quantum yield [3] [%] | Φdeg, degradation quantum yield [3] [%] | cell viability (SK-OV-3 cells; 50 nM) [%] | cell viability (SK-OV-3 cells; 100 nM) [%] | cell viability (SK-OV-3 cells; 200 nM) [%] | EC50 (SK-OV-3 cells; dark, 72 h, MTT, read-out: Dark EC50 values) [nM] |
| --- | --- | --- | --- | --- | --- | --- | --- | --- | --- | --- | --- |
| CC(OCc1ccccc1)C1=C2C=CC(=[N+]3CCCC3)C=C2C(C)(C)c2cc(N3CCCC3)ccc21.[I-] (centres unmarked) [Compound 35, 1-(10-(1-(benzyloxy)ethyl)-9,9-dimethyl-7-(pyrrolidin-1-yl)anthracen-2 (9H)-ylidene)pyrrolidin-1-ium iodide] | 659 | 635 | 81 200 M^−1cm^−1 | – | – | – | – | – | – | – | – |
| CC(OC(=O)Cc1ccccc1)c1c2ccc(=O)cc-2oc2cc(N3CCCC3)ccc12 (centres unmarked) [Compound 39, 1-(3-oxo-6-(pyrrolidin-1-yl)-3H-xanthen-9-yl)ethyl 2-phenylacetate] | 564 | 538 | 22 700 M^−1cm^−1 | 54 | 1070 | 4.7 | 6.2 | – | – | – | – |
| CC[N+]1=c2cc3c(cc2C(C)CC1(C)C)=C(C(C)OC(=O)Cc1ccccc1)c1cc2c4c(c1C3(C)C)CCCN4CCC2 (centres unmarked) [Compound 45] | 680 | 660 | 83 800 M^−1cm^−1 | – | 1390 | 1.6 | 2.6 | – | – | – | – |
| CC(OC(=O)N1CCN(c2ccccc2)CC1)C1=C2C=CC(=[N+]3CCCC3)C=C2C(C)(C)c2cc(N3CCCC3)ccc21 (centres unmarked) [Compound 49, 1-(9,9-dimethyl-10-(1-((4-phenylpiperazine-1-carbonyl)oxy)ethyl)-7-(pyrrolidin-1-yl)anthracen-2 (9H)-ylidene)pyrrolidin-1-ium] | 673 | 637 | 75 100 M^−1cm^−1 | – | 690 | 0.92 | 1.7 | – | – | – | – |
| CCc1c2c(nc3ccc(O)cc13)-c1cc3c(c(=O)n1C2)COC(=O)[C@]3(O)CC [SN38, 7-ethyl-10-hydroxycamptothecin, reference compound] | – | – | – | – | – | – | – | 29 | 27 | 30 | 6.2 |
